Here are results for 34 molecules from patent publication US8901313B2, “6,5-heterocyclic propargylic alcohol compounds and uses therefor” (Genentech, Inc., priority 2011, dated 2014).

The term Ki denotes the dissociation constant of the complex between target and ligand, obtained from inhibition or displacement.

For this experiment, the target named is T1, nuclear factor-kappa B (NF-kB)-inducing kinase (NIK) (Homo sapiens, UniProt Q99558).
T1 construct: made in house; host or cells: baculovirus-infected insect cells
T1 sequence (Q99558 whole entry): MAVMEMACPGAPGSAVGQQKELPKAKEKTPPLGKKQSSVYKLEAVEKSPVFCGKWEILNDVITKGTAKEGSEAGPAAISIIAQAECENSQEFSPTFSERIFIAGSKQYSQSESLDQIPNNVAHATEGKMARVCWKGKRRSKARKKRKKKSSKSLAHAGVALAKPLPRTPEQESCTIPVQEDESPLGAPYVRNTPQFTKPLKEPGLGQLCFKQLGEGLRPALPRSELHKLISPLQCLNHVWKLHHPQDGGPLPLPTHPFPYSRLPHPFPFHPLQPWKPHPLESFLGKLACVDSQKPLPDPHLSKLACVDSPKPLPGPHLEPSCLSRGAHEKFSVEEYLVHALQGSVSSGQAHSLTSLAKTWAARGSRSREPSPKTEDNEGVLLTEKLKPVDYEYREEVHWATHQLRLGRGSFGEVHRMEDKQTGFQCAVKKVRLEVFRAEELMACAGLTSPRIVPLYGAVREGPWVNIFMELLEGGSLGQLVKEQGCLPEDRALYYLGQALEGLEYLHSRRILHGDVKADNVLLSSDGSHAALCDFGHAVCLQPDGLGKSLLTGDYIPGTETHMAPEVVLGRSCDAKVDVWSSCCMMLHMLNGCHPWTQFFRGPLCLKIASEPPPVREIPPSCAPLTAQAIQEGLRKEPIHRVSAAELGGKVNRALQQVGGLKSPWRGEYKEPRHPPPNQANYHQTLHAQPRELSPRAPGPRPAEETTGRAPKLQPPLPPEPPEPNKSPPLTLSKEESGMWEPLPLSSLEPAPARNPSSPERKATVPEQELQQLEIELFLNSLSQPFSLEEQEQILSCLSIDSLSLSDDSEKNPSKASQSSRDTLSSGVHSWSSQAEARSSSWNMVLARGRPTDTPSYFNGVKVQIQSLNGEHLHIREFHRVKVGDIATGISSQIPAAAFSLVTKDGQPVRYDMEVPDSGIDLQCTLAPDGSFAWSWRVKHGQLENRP
Kind of experiment: NIK Enzyme Inhibition Assay (Transcreener ADP assay). It is filed as biochemical. The conditions noted are these: purified NIK 0.2-1 nM, 10 uM ATP, fluorescence polarization, Morrison's quadratic equation; read-out: inhibitory value (Ki) for NIK. On the technique in general: Polarisation of emitted light reports the rotation of a fluorescent probe.
Consider `Cc1cnc(C(C)(O)C#Cc2ccc3c(C)nn(-c4ccnc(N)n4)c3c2)cn1` (stereo not shown) [Example T1.1-91, 4-[1-(2-aminopyrimidin-4-yl)-3-methyl-indazol-6-yl]-2-(5-methyl-pyrazin-2-yl)but-3-yn-2-ol], for which the Ki was 69 nM.

For the molecule `CC(C)(O)C#Cc1ccc2cnn(-c3nc(N)ncc3-c3cn[nH]c3)c2c1` [Example T1.1-92, 4-[1-[2-amino-5-(1H-pyrazol-4-yl)pyrimidin-4-yl]indazol-6-yl]-2-methyl-but-3-yn-2-ol], the Ki is 70 nM.

For `Cc1cc(-n2nc(C)c3ccc(C#C[C@@](C)(O)c4noc(C)n4)cc32)nc(N)n1` [Example T1.1-93, (2R)-4-[1-(2-amino-6-methyl-pyrimidin-4-yl)-3-methyl-indazol-6-yl]-2-(5-methyl-1,2,4-oxadiazol-3-yl)but-3-yn-2-ol], the Ki came to 78 nM.

For the molecule `Cc1cc(-n2nc(C)c3ccc(C#CC(C)(O)c4ncccn4)cc32)nc(N)n1` (stereo not shown) [Example T1.1-94, 4-[1-(2-amino-6-methyl-pyrimidin-4-yl)-3-methyl-indazol-6-yl]-2-pyrimidin-2-yl-but-3-yn-2-ol], the Ki came to 85 nM.

As for `Cn1ccc(C(C)(O)C#Cc2ccc3c(C(C)(C)O)nn(-c4ccnc(N)n4)c3c2)n1` (stereo not shown) [Example T1.1-95, 4-[1-(2-aminopyrimidin-4-yl)-3-(1-hydroxy-1-methyl-ethyl)indazol-6-yl]-2-(1-methylpyrazol-3-yl)but-3-yn-2-ol], the Ki came out at 87 nM.

On to `CC(C)(O)C#Cc1ccc2nc(OC3COC3)n(-c3ccnc(N)n3)c2c1` [Example T1.1-96, 4-[3-(2-aminopyrimidin-4-yl)-2-(oxetan-3-yloxy)benzimidazol-5-yl]-2-methyl-but-3-yn-2-ol], for which the Ki worked out at 100 nM.

As for `Cc1cc(C(C)(O)C#Cc2ccc3nc(OC4CN(CCO)C4)n(-c4ccnc(N)n4)c3c2)no1` (stereo not shown) [Example T1.1-97, 4-[3-(2-aminopyrimidin-4-yl)-2-[1-(2-hydroxyethyl)azetidin-3-yl]oxy-benzimidazol-5-yl]-2-(5-methyl-isoxazol-3-yl)but-3-yn-2-ol], the Ki worked out at 102 nM.

On to `Cc1nn(-c2ccnc(N)n2)c2cc(C#CC(C)(O)c3ncc[nH]3)ccc12` (stereo not shown) [Example T1.1-98, 4-[1-(2-aminopyrimidin-4-yl)-3-methyl-indazol-6-yl]-2-(1H-imidazol-2-yl)but-3-yn-2-ol], for which the Ki turned out to be 111 nM.

As for `Cc1nc2ccc(C#CC(C)(O)CC3CC3)cc2n1-c1ncnc(N)n1` (stereo not shown) [Example T1.1-99, 4-[3-(4-amino-1,3,5-triazin-2-yl)-2-methyl-benzimidazol-5-yl]-1-cyclopropyl-2-methyl-but-3-yn-2-ol], the Ki came to 129 nM.

As to `Cc1nc2ccc(C#CC(C)(O)CO)cc2n1-c1ncnc(N)n1` (stereo not shown) [Example T1.1-100, 4-[3-(4-amino-1,3,5-triazin-2-yl)-2-methyl-benzimidazol-5-yl]-2-methyl-but-3-yne-1,2-diol], the Ki came to 130 nM.

With `CNc1nccc(-n2ncc3ccc(C#C[C@@](C)(O)c4cc(C)on4)cc32)n1` [Example T1.1-101, (2R)-4-[1-[2-(methylamino)pyrimidin-4-yl]indazol-6-yl]-2-(5-methylisoxazol-3-yl)but-3-yn-2-ol], the Ki came to 150 nM.

For `Cc1nn(-c2ccnc(N)n2)c2cc(C#CC(C)(O)C(=O)N3CC(O)C3)ccc12` (stereo not shown) [Example T1.1-102, 4-[1-(2-aminopyrimidin-4-yl)-3-methyl-indazol-6-yl]-2-hydroxy-1-(3-hydroxyazetidin-1-yl)-2-methyl-but-3-yn-1-one], the Ki was 310 nM.

As to `Cc1nn(-c2ccnc(N)n2)c2cc(C#CC(C)(O)C(=O)N(C)C)ccc12` (stereo not shown) [Example T1.1-103, 4-[1-(2-aminopyrimidin-4-yl)-3-methyl-indazol-6-yl]-2-hydroxy-N,N,2-trimethyl-but-3-ynamide], the Ki turned out to be 315 nM.

Turning to `Cc1cc(C(C)(O)C#Cc2ccc3nc(C(=O)N4CCCC4)n(-c4ccnc(N)n4)c3c2)no1` (stereo not shown) [Example T1.1-104, [1-(2-aminopyrimidin-4-yl)-6-[3-hydroxy-3-(5-methylisoxazol-3-yl)but-1-ynyl]benzimidazol-2-yl]-pyrrolidin-1-yl-methanone], the Ki turned out to be 342 nM.

Turning to `Cc1nc2ccc(C#CC3(O)CCCCC3)cc2n1-c1ncnc(N)n1` [Example T1.1-106, 1-[2-[3-(4-amino-1,3,5-triazin-2-yl)-2-methyl-benzimidazol-5-yl]ethynyl]cyclohexanol], the Ki is 775 nM.

For the molecule `Cc1nc2ccc(C#CC3(CO)CCCC3)cc2n1-c1ncnc(N)n1` [Example T1.1-107, [1-[2-[3-(4-amino-1,3,5-triazin-2-yl)-2-methyl-benzimidazol-5-yl]ethynyl]cyclopentyl]methanol], the Ki was found to be 913 nM.

As to `CC(O)(C#Cc1ccc2nc(OCCO)n(-c3ccnc(N)n3)c2c1)c1ccc(F)cn1` (stereo not shown) [Example T1.1-108, 4-[3-(2-aminopyrimidin-4-yl)-2-(2-hydroxyethoxy)benzimidazol-5-yl]-2-(5-fluoro-2-pyridyl)but-3-yn-2-ol], the Ki was 1600 nM.

For `Cc1nc2ccc(C#CC(O)C3CC(O)C3)cc2n1-c1ncnc(N)n1` (stereo not shown) [Example T1.1-109, 3-[3-[3-(4-amino-1,3,5-triazin-2-yl)-2-methyl-benzimidazol-5-yl]-1-hydroxy-prop-2-ynyl]cyclobutanol], the Ki was 1600 nM.

Regarding `Cc1nc2ccc(C#CC3(O)CC4CCC3C4)cc2n1-c1ncnc(N)n1` (stereo not shown) [Example T1.1-110, 2-[2-[3-(4-amino-1,3,5-triazin-2-yl)-2-methyl-benzimidazol-5-yl]ethynyl] norbornan-2-ol], the Ki came to 1700 nM.

`Cc1nc2ccc(C#CC(C)(O)c3nc(CO)cs3)cc2n1-c1ncnc(N)n1` (stereo not shown) [Example T1.1-111, 4-[3-(4-amino-1,3,5-triazin-2-yl)-2-methyl-benzimidazol-5-yl]-2-[4-(hydroxy-methyl)thiazol-2-yl]but-3-yn-2-ol]: the Ki was 1700 nM.

Consider `Cc1nc2ccc(C#CC(C)(O)c3nc(CC#N)cs3)cc2n1-c1ncnc(N)n1` (stereo not shown) [Example T1.1-112, 2-[2-[3-[3-(4-amino-1,3,5-triazin-2-yl)-2-methyl-benzimidazol-5-yl]-1-hydroxy-1-methyl-prop-2-ynyl]thiazol-4-yl] acetonitrile], for which the Ki turned out to be 1800 nM.

`Cc1nc2ccc(C#CC3(O)CC(C#N)C3)cc2n1-c1ncnc(N)n1` (stereo not shown) [Example T1.1-113, 3-[2-[3-(4-amino-1,3,5-triazin-2-yl)-2-methyl-benzimidazol-5-yl]ethynyl]-3-hydroxy-cyclobutanecarbonitrile]: the Ki worked out at 2400 nM.

With `Cc1nc2ccc(C#CC3(O)CCCOC3)cc2n1-c1ncnc(N)n1` (stereo not shown) [Example T1.1-114, 3-[2-[3-(4-amino-1,3,5-triazin-2-yl)-2-methyl-benzimidazol-5-yl]ethynyl] tetrahydropyran-3-ol], the Ki stood at 2600 nM.

For the molecule `Cc1nc2ccc(C#CC3(O)CC(CO)C3)cc2n1-c1ncnc(N)n1` (stereo not shown) [Example T1.1-115, 1-[2-[3-(4-amino-1,3,5-triazin-2-yl)-2-methyl-benzimidazol-5-yl]ethynyl]-3-(hydroxymethyl)cyclobutanol], the Ki is 3900 nM.

As for `Cc1nc2ccc(C#CC3(O)COC3)cc2n1-c1ncnc(N)n1` [Example T1.1-116, 3-[2-[3-(4-amino-1,3,5-triazin-2-yl)-2-methyl-benzimidazol-5-yl]ethynyl] oxetan-3-ol], the Ki is at least 5000 nM.

As to `CN(C)C(=O)c1nn(-c2ccnc(N)n2)c2cc(C#CC3(O)CCn4cncc43)ccc12` (stereo not shown) [Example T1.1-117, 1-(2-aminopyrimidin-4-yl)-6-[2-(7-hydroxy-5,6-dihydropyrrolo[1,2-c]imidazol-7-yl)ethynyl]-N,N-dimethyl-indazole-3-carboxamide], the Ki is at least 5000 nM.

As to `Cc1nc2ccc(C#CC(C)(C)CO)cc2n1-c1ncnc(N)n1` [Example T1.1-118, 4-[3-(4-amino-1,3,5-triazin-2-yl)-2-methyl-benzimidazol-5-yl]-2,2-dimethyl-but-3-yn-1-ol], the Ki is at least 5000 nM.

Regarding `CNc1ccnc(-n2ncc3ccc(C#CC(C)(O)c4cc(C)on4)cc32)n1` (stereo not shown) [Example T1.1-119, 4-[1-[4-(methylamino)pyrimidin-2-yl]indazol-6-yl]-2-(5-methyl-isoxazol-3-yl)but-3-yn-2-ol], the Ki was at least 5000 nM.

As for `Nc1nccc(-n2ncc3c(F)cc(C#CC4(O)CCCC4)cc32)n1` [Example T1.1-120, 1-[2-[1-(2-aminopyrimidin-4-yl)-4-fluoro-indazol-6-yl]ethynyl] cyclopentanol], the Ki is at least 5000 nM.

Regarding `CC(O)(C#Cc1ccc2c(C(=O)N3CCOCC3)nn(-c3ccnc(N)n3)c2c1)c1ccncn1` (stereo not shown) [Example T1.1-121, [1-(2-aminopyrimidin-4-yl)-6-(3-hydroxy-3-pyrimidin-4-yl-but-1-ynyl)indazol-3-yl]-morpholino-methanone], the Ki was at least 5000 nM.

Consider `Cc1nc([C@](C)(O)C#Cc2ccc3nc(OCCF)n(-c4ccnc(N)n4)c3c2)no1` [Example T1.1-122, (2R)-4-[3-(2-aminopyrimidin-4-yl)-2-(2-fluoroethoxy)benzimidazol-5-yl]-2-(5-methyl-1,2,4-oxadiazol-3-yl)but-3-yn-2-ol], for which the inhibition constant (Ki) was 0.3 nM.

In the case of `CC(O)(C#Cc1ccc2nc(OCCO)n(-c3ccnc(N)n3)c2c1)c1ccc(Cl)cn1` (stereo not shown) [Example T1.1-123, 4-[3-(2-aminopyrimidin-4-yl)-2-(2-hydroxyethoxy)benzimidazol-5-yl]-2-(5-chloro-2-pyridyl)but-3-yn-2-ol], the Ki is at least 5000 nM.

`Cc1nn(-c2ccnc(N)n2)c2cc(C#CC(C)(O)c3nccs3)ccc12` (stereo not shown) [Example T1.1-125, 4-[1-(2-aminopyrimidin-4-yl)-3-methyl-indazol-6-yl]-2-thiazol-2-yl-but-3-yn-2-ol]: the Ki was found to be 1 nM.

`Cc1nc2ccc(C#CC(C)(O)Cn3cccn3)cc2n1-c1ncnc(N)n1` (stereo not shown) [Example T1.1-126, 4-[3-(4-amino-1,3,5-triazin-2-yl)-2-methyl-benzimidazol-5-yl]-2-methyl-1-pyrazol-1-yl-but-3-yn-2-ol]: the Ki was at least 5000 nM.
